Where “and” joins values, the source holds several entries; their conditions need not be identical. Equal entries are not always repeated.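 Assay format: 96-well plates, 48-hour exposure. The concentration for 50% growth inhibition is given as GI50. TGI is the concentration that stops growth completely.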
Legend:
Test in all cases: NCI anticancer screen, dose series, 48 h
[1] = test system: MDA-N
[2] = test system: NCI/ADR-RES ovarian
[3] = test system: DMS 114 small cell lung
[4] = test system: HOP-18 NSCLC
[5] = test system: LXFL 529 NSCLC
[6] = test system: M19-MEL melanoma
[7] = test system: SNB-78 CNS

SMILES	TGI [2]	GI50 [2] [µM]	further results
c1c[nH]c(CN2CCN(Cc3ncc[nH]3)CC2)n1	> 100 µM	–	TGI [1]: > 100 µM
O=C(c1ccco1)c1c(C(F)(F)F)n([O-])c2cc(Cl)c(Cl)cc2[n+]1=O	1.78 µM	0.845	–
Nc1nc(-c2ccccn2)c(-c2ccc3ncccc3n2)s1	> 25 µM	> 25	–
O=C1N(c2ccccc2)C2(O)C(=O)c3ccccc3C2(O)N1c1ccccc1 (configuration not stated)	–	–	TGI [3]: > 100 µM; TGI [4]: > 100 µM; TGI [5]: > 100 µM; TGI [6]: > 100 µM; TGI [7]: > 100 µM
NC1=Nc2cc(OCCCCN3Cc4ccccc4C3)c(OCC3CC3)cc2C12CCCC2	3.41 µM	1.73	–
O=C(CNC(=O)c1cccc2ccccc12)Nc1ccccc1Oc1ccc(O)cc1	> 25 µM	1.19	–
CCCCCCCCCCCCNC(=O)N[C@H](C(=O)N[C@H]1/C=C/OCCNC(=O)/C=C/[C@H](C(C)C)NC1=O)C(C)C	> 100 µM	> 100	–
COC(=O)[C@@H](C)C[C@H](Cc1ccccc1)NC(=O)c1nc([C@@H](C[C@H](C(C)C)N(C)C(=O)[C@@H](NC(=O)[C@H]2CC(=O)CCN2C)C(C)C)OC(C)=O)sc1C(C)C	> 16.7 µM	4.11	–
O=c1ccn([C@@H]2C[C@H](CO)CS(=O)C2)c(=O)[nH]1 (some centres not stated)	–	–	TGI [3]: > 100 µM; TGI [4]: > 100 µM; TGI [5]: > 100 µM; TGI [6]: > 100 µM
O=c1c2cc(F)ccc2sc2c(NCCCNCCO)nc3ccc(F)cc3c12	3.22 µM	1.67	–
O=C(/C=C/c1ccccc1)c1ccccn1	54.5 µM and > 100 µM	–	TGI [1]: 30.5 µM and 67.4 µM
COc1cc(F)c(F)c(F)c1C(=O)c1cnc(NC2CCN(S(C)(=O)=O)CC2)nc1N	> 25 µM	5.16	–
CC(C)CC(=O)O[C@H]1C(=O)O[C@@H]2C[C@H]3[C@H](C)C(=O)C(O[C@@H]4O[C@H](CO)[C@@H](O)[C@H](O)[C@H]4O)=C[C@]3(C)[C@H]3[C@@H](O)[C@H](O)[C@]4(C(=O)O)OC[C@]32[C@@H]14	> 100 µM	> 100	TGI [1]: > 100 µM
Nc1nc(N)c2nc(CNc3ccc(C(=O)NC(CCC(=O)O)C(=O)O)cc3)cnc2n1 (configuration not stated)	> 100 µM	< 0.01	–
CC[C@@]12CC(C(=O)OC)=C3Nc4ccccc4[C@@]34CCN(C[C@H]3O[C@H]31)[C@@H]24	> 100 µM	31	–
Cc1ccc(CNc2ccc(Cl)cc2NCc2ccc(C)c(O)c2)cc1O	17.8 µM	8.3	–

SMILES	TGI [2]	GI50 [2] [µM]	further results
CC(=O)O[C@@H]1[C@H]2O[C@H]2[C@H]2O[C@@]2(COC(=O)c2ccccc2)[C@H]1OC(C)=O	> 100 µM	–	TGI [1]: > 100 µM
COc1ccc2c(c1)OCC1c3cc(OC)ccc3OC21 (configuration not stated)	> 100 µM	32	–
CC(C)c1c(C(=O)Nc2ccccc2)c(-c2ccccc2)c(-c2ccc(F)cc2)n1CC[C@@H](O)C[C@@H](O)CC(=O)O	> 100 µM	40.8	–
N#CC(NNC(=O)c1ccccc1O)c1ccccc1O (configuration not stated)	–	–	TGI [4]: > 100 µM; TGI [5]: > 100 µM; TGI [6]: 27.2 µM; TGI [7]: > 100 µM
CC(C)OC(=O)OCOP(=O)(OCOC(=O)OC(C)C)C1CCCN(O)C1=O (configuration not stated)	> 100 µM	2.6	–
CC(=O)Nc1ccc(S(=O)(=O)N2C(=O)CCC2C(=O)Nc2ccccc2)cc1 (configuration not stated)	29.1 µM	1.61	–
COc1cc(/C=C(\C#N)C(=O)c2ccccc2)cc(OC)c1OC	–	–	TGI [3]: > 100 µM; TGI [4]: > 100 µM; TGI [5]: > 100 µM; TGI [6]: > 100 µM; TGI [7]: > 100 µM
CCOc1ccc(/C=C/C(=O)c2sc(NNC(C)=O)nc2C)cc1	–	–	TGI [3]: > 100 µM; TGI [4]: > 100 µM; TGI [6]: > 100 µM; TGI [7]: > 100 µM
Cc1[nH]n(C(=O)Cc2ccccc2)c(=O)c1/C=C1\C(=O)C=Cc2ccccc21	–	–	TGI [3]: > 100 µM; TGI [4]: 84.6 µM; TGI [6]: > 100 µM
COc1ncc(-c2ccc3nc(N)n(-c4ccccc4C(F)(F)F)c(=O)c3c2)cc1S(=O)(=O)Nc1ccc(F)cc1F	13.8 µM	1.94	–
Cc1ccccc1C1N=C2Oc3ccccc3C=C2C(=O)N1 (configuration not stated)	> 87.8 µM	2.96	–
FC(F)(F)c1ccc(-c2cnc(-c3nn[nH]n3)nc2NC2CCCCCC2)cc1	> 10 µM	> 10	–
N/C(=N\O)c1cn(C2OC(CO)C(O)C2O)c2ncnc(N)c12 (configuration not stated)	–	0.262	–
O=C(/C=C/c1c[nH]c2ccccc12)c1ccccc1O	–	–	TGI [1]: 17.5 µM
CC1(C)OC2OC(/C=C/[N+](=O)[O-])C3OC(C)(C)OC3C2O1 (configuration not stated)	–	–	TGI [3]: 34.5 µM; TGI [4]: 40.8 µM; TGI [5]: 10.1 µM; TGI [6]: 27.7 µM; TGI [7]: 44 µM

Source: PubChem BioAssay (NCI)
